Data on 2 molecules can be found in patent US4226980A, “Novel derivatives of fortimicin B and process for preparing same” (Abbott Laboratories, priority 1978, dated 1980).

The subject of series [1] is Bacillus subtilis ATCC 6633. The series is described as follows: antibacterial activity (MIC). It counts as cell-based. The settings on record: medium pH 7.2, Japanese Antibiotic Medicament Standard; unit assumed. The method, then: (§1) Furthermore in the following Table 3, the antibacterial activity (MIC) of the compounds are set forth. The measurement was carried out according to the Japanese Antibiotic Medicament Standard using a medium having a pH of 7.2. Numbers of the compounds in Table 3 correspond to those in Tables 1 and 2.

A further series deals with Escherichia coli 3100. Put plainly: antibacterial activity (MIC). It counts as cell-based. Particulars: medium pH 7.2, Japanese Antibiotic Medicament Standard; unit assumed. The method, then: as §1
The next series concerns Escherichia coli NIHJ-2. Put plainly: antibacterial activity (MIC). Format: cell-based. Particulars: medium pH 7.2, Japanese Antibiotic Medicament Standard; unit assumed. The method, then: as §1
The subject of series [2] is Klebsiella pneumoniae #8045. The series is described as follows: antibacterial activity (MIC). It counts as cell-based. Particulars: medium pH 7.2, Japanese Antibiotic Medicament Standard; unit assumed. The method, then:
as §1

For a further series, the system named is Providencia sp. KY3950. The series is described as follows: antibacterial activity (MIC). The settings on record: medium pH 7.2, Japanese Antibiotic Medicament Standard; unit assumed. It counts as cell-based. The method, then: as §1
Series [3] concerns Pseudomonas aeruginosa BMH#10. Put plainly: antibacterial activity (MIC). Particulars: medium pH 7.2, Japanese Antibiotic Medicament Standard; unit assumed. Format: cell-based. The procedure:
as §1

Series [4] has as its system Shigella sonnei ATCC 9290. The series is described as follows: antibacterial activity (MIC). Format: cell-based. Particulars: medium pH 7.2, Japanese Antibiotic Medicament Standard; unit assumed. The procedure: as §1
In series [5] the test system is Staphylococcus aureus 209-p. The series is described as follows: antibacterial activity (MIC). The settings on record: medium pH 7.2, Japanese Antibiotic Medicament Standard; unit assumed. It counts as cell-based. The method, then: as §1
Series [6] has as its system Staphylococcus aureus Smith. Put plainly: antibacterial activity (MIC). It counts as cell-based. Particulars: medium pH 7.2, Japanese Antibiotic Medicament Standard; unit assumed. The procedure:
as §1

The test system of series [7] is Escherichia coli 57R/W677. The series is described as follows: antibacterial activity (MIC), resistant strain. Format: cell-based. Particulars: medium pH 7.2; strain "producing gentamicin" (footnote 4); unit assumed. The method, then: as §1
The subject of series [8] is Escherichia coli R17 Z-343. Put plainly: antibacterial activity (MIC), resistant strain. Particulars: medium pH 7.2; strain "producing kanamycin" (footnote 1); unit assumed. Format: cell-based. The procedure: as §1
Series [9] concerns Escherichia coli R18 KY-8321. The series is described as follows: antibacterial activity (MIC), resistant strain. Format: cell-based. Particulars: medium pH 7.2; strain producing gentamicin nucleotidyltransferase and neomycin phosphotransferase II; unit assumed. The procedure: as §1
The subject of series [10] is Escherichia coli R19 KY-8348. The series is described as follows: antibacterial activity (MIC), resistant strain. Format: cell-based. The settings on record: medium pH 7.2; strain producing gentamicin acetyltransferase; unit assumed. The procedure: as §1
In series [11] the test system is Klebsiella pneumniae 3020 Y60. The series is described as follows: antibacterial activity (MIC), resistant strain. Format: cell-based. Particulars: medium pH 7.2; strain "producing gentamicin" (footnote 4); unit assumed. The method, then:
as §1

The next series relates to Providencia sp. 164. Put plainly: antibacterial activity (MIC), resistant strain. Particulars: medium pH 7.2; strain producing gentamicin acetyltransferase (footnote 5); unit assumed. Format: cell-based. The procedure: as §1
Series [12] has as its system Pseudomonas aeruginosa R4 KY8511. The series is described as follows: antibacterial activity (MIC), resistant strain. Format: cell-based. The settings on record: medium pH 7.2; strain producing gentamicin acetyltransferase; unit assumed. The method, then:
as §1

Series [13] concerns Pseudomonas aeruginosa R9 KY8516. Put plainly: antibacterial activity (MIC), resistant strain. Format: cell-based. The settings on record: medium pH 7.2; strain "producing kanamycin" (footnote 1); unit assumed. The procedure:
as §1

Series [14] concerns various microorganisms including resistant strains. Particulars: earlier patents; cited from earlier work.
Series [15] is classed as physicochemical. From the text: That is, Compound I-a is almost decomposed in an alkaline solution with a pH of 10 at room temperature for 2 weeks to form compounds having low activity.
The conditions of series [16]: strongly alkaline or alkaline conditions; cited from earlier work.

For `CNC1C(O)C(OC2OC(C(C)N)CCC2N)C(N)C(O)C1OC` (stereo not shown) [Compound 1, fortimicin B], the antibacterial activity (MIC) in series [1] was 25 µg/mL; with Escherichia coli 3100 it was 100 µg/mL; with Escherichia coli NIHJ-2 it was more than 100 µg/mL; in [2], 100 µg/mL; with Providencia sp. KY3950, more than 100 µg/mL; in series [3], more than 100 µg/mL. Besides, the antibacterial activity (MIC) in [4] was more than 100 µg/mL; in series [5] it was more than 100 µg/mL; in series [6], 100 µg/mL; in series [7], more than 100 µg/mL; in [8], more than 100 µg/mL; in series [9], more than 100 µg/mL. Moreover, the antibacterial activity (MIC) (in series [10]; in series [11]; with Providencia sp. 164; in series [12]; in series [13]) was more than 100 µg/mL in each case. Moreover, the “antibacterial activity (background)” value in [14] is listed as “not as good as the other factors”.

As for `COC1C(O)C(N)C(OC2OC(C(C)N)CCC2N)C(O)C1N(C)C(=O)CNC(N)=O` (stereo not shown) [Compound 3, fortimicin C, reference compound], the antibacterial activity (MIC) in [1] was 3.12 µg/mL; in the series on Escherichia coli 3100, 12.5 µg/mL; in the series on Escherichia coli NIHJ-2 it was 3.12 µg/mL; in series [2] it was 12.5 µg/mL; in the series on Providencia sp. KY3950 it was 25 µg/mL; in series [3], 3.12 µg/mL. Besides, the antibacterial activity (MIC) in series [4] is 25 µg/mL; in [5], 6.25 µg/mL; in series [6] it was 12.5 µg/mL; in series [7], 6.25 µg/mL; in series [8], 3.12 µg/mL; in series [9], 12.5 µg/mL. Moreover, the antibacterial activity (MIC) in series [10] is more than 100 µg/mL; in series [11], 50 µg/mL; in the series with Providencia sp. 164 it was 25 µg/mL; in [12], more than 100 µg/mL; in series [13], 50 µg/mL. The “stability under strongly alkaline conditions” value in [15] is listed as “slightly unstable”. The “stability under alkaline conditions (background)” value in [16] is “slightly unstable”.
